This note sets out measurements from patent publication US20230115274A1, “COMPOUNDS AND COMPOSITIONS FOR TREATING CONDITIONS ASSOCIATED WITH STING ACTIVITY” (IFM Due, Inc., priority 2019, published 2023).

T1 sequence (Q86WV6 whole entry R71H/G230A/H232R/R293Q): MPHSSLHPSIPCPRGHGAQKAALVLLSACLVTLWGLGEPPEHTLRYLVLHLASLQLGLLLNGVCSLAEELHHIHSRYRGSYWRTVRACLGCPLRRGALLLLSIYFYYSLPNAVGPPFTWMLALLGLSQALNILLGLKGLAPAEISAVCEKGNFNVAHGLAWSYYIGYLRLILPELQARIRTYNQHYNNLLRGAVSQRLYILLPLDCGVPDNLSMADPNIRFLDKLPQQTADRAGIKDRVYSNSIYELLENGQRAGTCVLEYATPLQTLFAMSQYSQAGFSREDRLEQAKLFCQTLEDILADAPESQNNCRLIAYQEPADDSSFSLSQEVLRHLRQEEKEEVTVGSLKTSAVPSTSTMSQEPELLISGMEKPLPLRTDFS

The first assay has as its target T1, hSTING (Homo sapiens, UniProt Q86WV6, G230A/H232R/R293Q/R71H).
T1 construct: host or cells: THP1-Dual KO-IFNAR2 cells
Put plainly: STING reporter assay (luciferase) in THP1-Dual KO-IFNAR2 cells stimulated with 2′3′cGAMP. The format is cell-based. The settings on record: 2′3′cGAMP 15 μM, 24 h, class symbols. The procedure: STING pathway activation by the compounds described herein was measured using THP1-Dual™ cells (KO-IFNAR2).
THP1-Dual™ KO-IFNAR2 Cells (obtained from invivogen) were maintained in RPMI, 10% FCS, 5 ml P/S, 2 mM L-glut, 10 mM Hepes, and 1 mM sodium pyruvate. Compounds were spotted in empty 384 well tissue culture plates (Greiner 781182) by Echo for a final concentration of 0.0017-100 μM. Cells were plated into the TC plates at […], 2×10E6 cells/mL. For activation with STING ligand, 2′3′cGAMP (MW 718.38, obtained from Invivogen), was prepared in Optimem media.
The following solutions were prepared for each 1×384 plate: • Solution A: 2 mL Optimem with one of the following stimuli: • […] • Solution B: 2 mL Optimem with 60 μL Lipofectamine 2000->Incubate 5 min at RT
2 mL of solution A and 2 ml Solution B was mixed and incubated for 20 min at room temperature (RT). 20 uL of transfection solution (A+B) was added on top of the plated cells, with a final 2′3′cGAMP concentration of 15 μM. The plates were then centrifuged immediately at 340 g for 1 minute, after which they were incubated at 37° C., 5% CO2, >98% humidity for 24 h. Luciferase reporter activity was then measured. EC50 values were calculated by using standard methods known in the art.
Luciferase reporter assay: 10 μL of supernatant from the assay was transferred to white 384-plate with flat bottom and squared wells. One pouch of QUANTI-Luc™ Plus was dissolved in 25 mL of water. 100 μL of QLC Stabilizer per 25 mL of QUANTI-Luc™ Plus solution was added. 50 μL of QUANTI-Luc™ Plus/QLC solution per well was then added. Luminescence was measured on a Platereader (e.g., Spectramax I3X (Molecular Devices GF3637001)).
Luciferase reporter activity was then measured. EC50 values were calculated by using standard methods known in the art.
In general terms: In a reporter assay the amount or activity of a reporter protein is the signal.
What is called EC50 is the concentration at which the effect is half-maximal. Higher therefore signals lower potency in that assay. The molecule `CN(C(=O)OC(C)(C)C)C1CC(n2cc(NC(=O)Nc3ccc(C4CCC(F)(F)CC4)nc3)c3cc(F)cnc32)C1` (centres unmarked) [Compound 101, tert-butyl (3-(3-(3-(6-(4,4-difluorocyclohexyl)pyridin-3-yl)ureido)-5-fluoro-1H-pyrrolo[2,3-b]pyridin-1-yl)cyclobutyl)(methyl)carbamate] yielded an EC50 of 5000 to 100000 nM. The same measure, in the same setting: with `CC(C)(C)OC(=O)N1CCCC(n2cc(NC(=O)Nc3ccc(C4CCC(F)(F)CC4)nc3)c3cc(F)cnc32)C1` (centres unmarked) [Compound 102, tert-butyl 3-(3-(3-(6-(4,4-difluorocyclohexyl)pyridin-3-yl)ureido)-5-fluoro-1H-pyrrolo[2,3-b]pyridin-1-yl)piperidine-1-carboxylate] the figure was 5000 to 100000 nM. Same read-out and setting: in the case of `CC(C)(C)OC(=O)N1CCC(n2cc(NC(=O)Nc3ccc(C4CCC(F)(F)CC4)nc3)c3cc(F)cnc32)CC1` [Compound 103, tert-butyl 4-(3-(3-(6-(4,4-difluorocyclohexyl)pyridin-3-yl)ureido)-5-fluoro-1H-pyrrolo[2,3-b]pyridin-1-yl)piperidine-1-carboxylate] it was 5000 to 100000 nM. Still for that read-out and setting: with `O=C(Nc1ccc(C2CCC(F)(F)CC2)nc1)Nc1cn(Cc2ccccc2)c2ncc(F)cc12` [Compound 104, 1-(1-benzyl-5-fluoro-1H-pyrrolo[2,3-b]pyridin-3-yl)-3-(6-(4,4-difluorocyclohexyl)pyridin-3-yl)urea] the figure was 5000 to 100000 nM; with `O=C(Nc1ccc(C2CCC(F)(F)CC2)nc1)Nc1c[nH]c2ncc(-c3cccc(CO)c3)cc12` [Compound 105, 1-(6-(4,4-difluorocyclohexyl)pyridin-3-yl)-3-(5-(3-(hydroxymethyl)phenyl)-1H-pyrrolo[2,3-b]pyridin-3-yl)urea], 5000 to 100000 nM; with `Cc1cnc2[nH]cc(NC(=O)Nc3ccc(C4CCC(F)(F)CC4)nc3)c2c1` [Compound 106, 1-(6-(4,4-difluorocyclohexyl)pyridin-3-yl)-3-(5-methyl-1H-pyrrolo[2,3-b]pyridin-3-yl)urea], 1000 to 5000 nM.

For the molecule `CC(C)n1cc(-c2cnc3[nH]cc(NC(=O)Nc4ccc(C5CCC(F)(F)CC5)nc4)c3c2)cn1` [Compound 107, 1-(6-(4,4-difluorocyclohexyl)pyridin-3-yl)-3-(5-(1-isopropyl-1H-pyrazol-4-yl)-1H-pyrrolo[2,3-b]pyridin-3-yl)urea], the EC50 lay in the range of 200 to 1000 nM.

For the molecule `O=C(Nc1ccc(C2CCC(F)(F)CC2)nc1)Nc1c[nH]c2ncc(Cl)cc12` [Compound 108, 1-(5-chloro-1H-pyrrolo[2,3-b]pyridin-3-yl)-3-(6-(4,4-difluorocyclohexyl)pyridin-3-yl)urea], the EC50 lay within 200 to 1000 nM. In turn, `O=C(Nc1ccc(C2CCCC2)nc1)Nc1c[nH]c2ncc(F)cc12` [Compound 109, 1-(6-cyclopentylpyridin-3-yl)-3-(5-fluoro-1H-pyrrolo[2,3-b]pyridin-3-yl)urea] gave an EC50 of 200 to 1000 nM.

As for `O=C(Nc1cnc(N2CCC(F)(F)CC2)c(Cl)c1)Nc1c[nH]c2ncc(F)cc12` [Compound 110, 1-(5-chloro-6-(4,4-difluoropiperidin-1-yl)pyridin-3-yl)-3-(5-fluoro-1H-pyrrolo[2,3-b]pyridin-3-yl)urea], the EC50 lay within 40 to 200 nM.

With `O=C(Nc1cnc(OC2CCC2)c(F)c1)Nc1c[nH]c2ncc(F)cc12` [Compound 111, 1-(6-cyclobutoxy-5-fluoropyridin-3-yl)-3-(5-fluoro-1H-pyrrolo[2,3-b]pyridin-3-yl)urea], the half-maximal effective concentration (EC50) fell in the range of 200 to 1000 nM. `O=C(Nc1ccc(NC2CCC2)nc1)Nc1c[nH]c2ncc(F)cc12` [Compound 112, 1-(6-(cyclobutylamino)pyridin-3-yl)-3-(5-fluoro-1H-pyrrolo[2,3-b]pyridin-3-yl)urea] returned an EC50 of 1000 to 5000 nM. In turn, `O=C(Nc1cnc(C2CCC(F)(F)CC2)c(F)c1)Nc1c[nH]c2ncc(F)cc12` [Compound 113, 1-(6-(4,4-difluorocyclohexyl)-5-fluoropyridin-3-yl)-3-(5-fluoro-1H-pyrrolo[2,3-b]pyridin-3-yl)urea] showed an EC50 of 40 to 200 nM. In turn, `O=C(Nc1ccc(C2CCC(F)(F)CC2)nc1)Nc1c[nH]c2ncc(F)cc12` [Compound 116, 1-(6-(4,4-difluorocyclohexyl)pyridin-3-yl)-3-(5-fluoro-1H-pyrrolo[2,3-b]pyridin-3-yl)urea] displayed an EC50 of 200 to 1000 nM.

On to `O=C(Nc1ccc(N2CCC(F)(F)CC2)nc1)Nc1c[nH]c2ncc(F)cc12` [Compound 118, 1-(6-(4,4-difluoropiperidin-1-yl)pyridin-3-yl)-3-(5-fluoro-1H-pyrrolo[2,3-b]pyridin-3-yl)urea], for which the EC50 lay in the range of 200 to 1000 nM. In the case of `O=C(Nc1ccc(C2CCC(F)(F)CC2)nc1)Nc1cn(C(=O)c2ccccc2)c2ncc(F)cc12` [Compound 121, 1-(1-benzoyl-5-fluoro-1H-pyrrolo[2,3-b]pyridin-3-yl)-3-(6-(4,4-difluorocyclohexyl)pyridin-3-yl)urea], the EC50 is 200 to 1000 nM. The molecule `CC(=O)n1cc(NC(=O)Nc2ccc(C3CCC(F)(F)CC3)nc2)c2cc(F)cnc21` [Compound 122, 1-(1-acetyl-5-fluoro-1H-pyrrolo[2,3-b]pyridin-3-yl)-3-(6-(4,4-difluorocyclohexyl)pyridin-3-yl)urea] gave an EC50 of 200 to 1000 nM. Consider `Cc1cc(NC(=O)Nc2c[nH]c3cccnc23)cnc1C1CCC(F)(F)CC1` [Compound 136, 1-(6-(4,4-difluorocyclohexyl)-5-methylpyridin-3-yl)-3-(1H-pyrrolo[3,2-b]pyridin-3-yl)urea], for which the half-maximal effective concentration (EC50) lay within 5000 to 100000 nM.

For the molecule `Cc1cc(NC(=O)Nc2c[nH]c3ncc(Cl)cc23)cnc1C1CCC(F)(F)CC1` [Compound 137, 1-(5-chloro-1H-pyrrolo[2,3-b]pyridin-3-yl)-3-(6-(4,4-difluorocyclohexyl)-5-methylpyridin-3-yl)urea], the EC50 is 1000 to 5000 nM. In the case of `CC(O)c1cc(NC(=O)Nc2c[nH]c3ncc(F)cc23)cnc1N1CCC(F)(F)CC1` (centres unmarked) [Compound 138, 1-(6-(4,4-difluoropiperidin-1-yl)-5-(1-hydroxyethyl)pyridin-3-yl)-3-(5-fluoro-1H-pyrrolo[2,3-b]pyridin-3-yl)urea], the 50% effective concentration (EC50) is 1000 to 5000 nM. Turning to `CCc1ccc2[nH]cc(NC(=O)Nc3cnc(N4CCC(F)(F)CC4)c(C)c3)c2n1` [Compound 139, 1-(6-(4,4-difluoropiperidin-1-yl)-5-methylpyridin-3-yl)-3-(5-ethyl-1H-pyrrolo[3,2-b]pyridin-3-yl)urea], the EC50 is 1000 to 5000 nM. `COc1ccc2[nH]cc(NC(=O)Nc3cnc(C4CCC(F)(F)CC4)c(C#N)c3)c2n1` [Compound 140, 1-(5-cyano-6-(4,4-difluorocyclohexyl)pyridin-3-yl)-3-(5-methoxy-1H-pyrrolo[3,2-b]pyridin-3-yl)urea] came in with an EC50 of 200 to 1000 nM. The same measure, in the same setting: with `COc1ccc2[nH]cc(NC(=O)Nc3cnc(N4CCC(F)(F)CC4)c(Cl)c3)c2n1` [Compound 141, 1-(5-chloro-6-(4,4-difluoropiperidin-1-yl)pyridin-3-yl)-3-(5-methoxy-1H-pyrrolo[3,2-b]pyridin-3-yl)urea] the figure was 200 to 1000 nM.

Still in this assay, the particulars now being: 2′3′cGAMP 15 μM, 24 h, numeric bounds.
As to `O=C(Nc1ccc(C2CCC(O)CC2)nc1)Nc1c[nH]c2ncc(F)cc12` (centres unmarked) [Compound 114, 1-(5-fluoro-1H-pyrrolo[2,3-b]pyridin-3-yl)-3-(6-(4-hydroxycyclohexyl)pyridin-3-yl)urea], the EC50 is over 100000 nM. Still for that read-out and setting: with `O=C(Nc1ccc(C2CCC(F)(F)CC2)nc1)Nc1cn(C2CCCNC2)c2ncc(F)cc12` (centres unmarked) [Compound 123, 1-(6-(4,4-difluorocyclohexyl)pyridin-3-yl)-3-(5-fluoro-1-(piperidin-3-yl)-1H-pyrrolo[2,3-b]pyridin-3-yl)urea] the figure was over 30000 nM; with `CNC1CC(n2cc(NC(=O)Nc3ccc(C4CCC(F)(F)CC4)nc3)c3cc(F)cnc32)C1` (centres unmarked) [Compound 124, 1-(6-(4,4-difluorocyclohexyl)pyridin-3-yl)-3-(5-fluoro-1-(3-(methylamino)cyclobutyl)-1H-pyrrolo[2,3-b]pyridin-3-yl)urea], over 30000 nM.

Turning to `Cn1cc(-n2cc(NC(=O)Nc3ccc(C4CCC(F)(F)CC4)nc3)c3cc(F)cnc32)cn1` [Compound 125, 1-(6-(4,4-difluorocyclohexyl)pyridin-3-yl)-3-(5-fluoro-1-(1-methyl-1H-pyrazol-4-yl)-1H-pyrrolo[2,3-b]pyridin-3-yl)urea], the EC50 is over 30000 nM. In the case of `Cn1cc(NC(=O)Nc2ccc(C3CCC(F)(F)CC3)nc2)c2cc(F)cnc21` [Compound 127, 1-(6-(4,4-difluorocyclohexyl)pyridin-3-yl)-3-(5-fluoro-1-methyl-1H-pyrrolo[2,3-b]pyridin-3-yl)urea], the EC50 is over 30000 nM. The same measure, in the same setting: in the case of `O=C(Nc1ccc(C2CCC(F)(F)CC2)nc1)Nc1cn(C2CCNCC2)c2ncc(F)cc12` [Compound 128, 1-(6-(4,4-difluorocyclohexyl)pyridin-3-yl)-3-(5-fluoro-1-(piperidin-4-yl)-1H-pyrrolo[2,3-b]pyridin-3-yl)urea] it was over 30000 nM.
